PubChem BioAssay (NCI)
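Step 1: Grow cells in 96-well plates. Step 2: Expose to compound for 48 hours at 5 concentrations. Step 3: Interpolate endpoints linearly; if unreached, use highest concentration. TGI: total growth inhibition.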

Assays:
Test in all cases: NCI tumour cell line growth inhibition, 48 h
786-0 renal = test system: 786-0 renal
A498 renal = test system: A498 renal
A549 NSCLC = test system: A549 NSCLC
ACHN renal = test system: ACHN renal
CAKI-1 renal = test system: CAKI-1 renal
CCRF-CEM leukemia = test system: CCRF-CEM leukemia
COLO 205 colon = test system: COLO 205 colon
DLD-1 colon = test system: DLD-1 colon
DMS 114 small cell lung = test system: DMS 114 small cell lung
DMS 273 small cell lung = test system: DMS 273 small cell lung
EKVX NSCLC = test system: EKVX NSCLC
HCC-2998 colon = test system: HCC-2998 colon
HCT-116 colon = test system: HCT-116 colon
HCT-15 colon = test system: HCT-15 colon
HL-60(TB) leukemia = test system: HL-60(TB) leukemia
HOP-62 NSCLC = test system: HOP-62 NSCLC
HT29 colon = test system: HT29 colon
IGROV1 ovarian = test system: IGROV1 ovarian
K-562 leukemia = test system: K-562 leukemia
KM12 colon = test system: KM12 colon
KM20L2 colon = test system: KM20L2 colon
LOX IMVI melanoma = test system: LOX IMVI melanoma
M14 melanoma = test system: M14 melanoma
M19-MEL melanoma = test system: M19-MEL melanoma
MALME-3M melanoma = test system: MALME-3M melanoma
MOLT-4 leukemia = test system: MOLT-4 leukemia
NCI-H226 lung = test system: NCI-H226 lung
NCI-H23 lung = test system: NCI-H23 lung
NCI-H460 lung = test system: NCI-H460 lung
NCI-H522 lung = test system: NCI-H522 lung
OVCAR-3 ovarian = test system: OVCAR-3 ovarian
OVCAR-4 ovarian = test system: OVCAR-4 ovarian
OVCAR-5 ovarian = test system: OVCAR-5 ovarian
OVCAR-8 ovarian = test system: OVCAR-8 ovarian
RPMI-8226 leukemia = test system: RPMI-8226 leukemia
RXF 393 renal = test system: RXF 393 renal
RXF-631 renal = test system: RXF-631 renal
SF-268 CNS = test system: SF-268 CNS
SF-295 CNS = test system: SF-295 CNS
SF-539 CNS = test system: SF-539 CNS
SK-MEL-2 melanoma = test system: SK-MEL-2 melanoma
SK-MEL-28 melanoma = test system: SK-MEL-28 melanoma
SK-MEL-5 melanoma = test system: SK-MEL-5 melanoma
SK-OV-3 ovarian = test system: SK-OV-3 ovarian
SN12C renal = test system: SN12C renal
SNB-19 CNS = test system: SNB-19 CNS
SNB-75 CNS = test system: SNB-75 CNS
SNB-78 CNS = test system: SNB-78 CNS
SR leukemia = test system: SR leukemia
SW-620 colon = test system: SW-620 colon
TK-10 renal = test system: TK-10 renal
U251 CNS = test system: U251 CNS
UACC-257 melanoma = test system: UACC-257 melanoma
UACC-62 melanoma = test system: UACC-62 melanoma
UO-31 renal = test system: UO-31 renal
HOP-18 NSCLC = test system: HOP-18 NSCLC
LXFL 529 NSCLC = test system: LXFL 529 NSCLC

Measured: TGI

CC(C)CC(N=Cc1nc(-c2ccccc2)oc1O)C(=O)O (stereo not drawn)
> 100 µM: 786-0 renal | A498 renal | A549 NSCLC | ACHN renal | CAKI-1 renal | CCRF-CEM leukemia | COLO 205 colon | DLD-1 colon | DMS 114 small cell lung | DMS 273 small cell lung | EKVX NSCLC | HCC-2998 colon | HCT-116 colon | HCT-15 colon | HL-60(TB) leukemia | HOP-62 NSCLC | HT29 colon | IGROV1 ovarian | K-562 leukemia | KM12 colon | KM20L2 colon | LOX IMVI melanoma | M14 melanoma | M19-MEL melanoma | MALME-3M melanoma | MOLT-4 leukemia | NCI-H226 lung | NCI-H23 lung | NCI-H460 lung | NCI-H522 lung | OVCAR-3 ovarian | OVCAR-4 ovarian | OVCAR-5 ovarian | OVCAR-8 ovarian | RPMI-8226 leukemia | RXF 393 renal | RXF-631 renal | SF-268 CNS | SF-295 CNS | SF-539 CNS | SK-MEL-2 melanoma | SK-MEL-28 melanoma | SK-MEL-5 melanoma | SK-OV-3 ovarian | SN12C renal | SNB-19 CNS | SNB-75 CNS | SNB-78 CNS | SR leukemia | SW-620 colon | TK-10 renal | U251 CNS | UACC-257 melanoma | UACC-62 melanoma | UO-31 renal

COc1ccc(OC)c2c(C(=O)O)c(C(C)c3ccccc3)ccc12 (stereo not drawn)
> 100 µM: 786-0 renal | A498 renal | A549 NSCLC | ACHN renal | CAKI-1 renal | CCRF-CEM leukemia | COLO 205 colon | DLD-1 colon | DMS 273 small cell lung | EKVX NSCLC | HCC-2998 colon | HCT-116 colon | HCT-15 colon | HL-60(TB) leukemia | HOP-18 NSCLC | HOP-62 NSCLC | HT29 colon | IGROV1 ovarian | K-562 leukemia | KM12 colon | KM20L2 colon | LOX IMVI melanoma | LXFL 529 NSCLC | M14 melanoma | M19-MEL melanoma | MALME-3M melanoma | MOLT-4 leukemia | NCI-H226 lung | NCI-H23 lung | NCI-H460 lung | NCI-H522 lung | OVCAR-3 ovarian | OVCAR-4 ovarian | OVCAR-5 ovarian | OVCAR-8 ovarian | RXF 393 renal | RXF-631 renal | SF-268 CNS | SF-295 CNS | SK-MEL-2 melanoma | SK-MEL-28 melanoma | SK-MEL-5 melanoma | SK-OV-3 ovarian | SN12C renal | SNB-19 CNS | SNB-75 CNS | SR leukemia | SW-620 colon | TK-10 renal | U251 CNS | UACC-257 melanoma | UACC-62 melanoma | UO-31 renal
